Here are results for five compounds from ChEMBL document CHEMBL1158855, “Study on cytotoxic oxygenated desmosterols isolated from the red alga Galaxaura marginata” (1997).

SMILES strings stand for the structures. ≈ marks a conversion by molar mass, not a printed value.

What all share (assay type): functional
Common to all, as to details: read-out: ED50 (the source's name)

Assay [1] deals with A549. Nature of the assay: Cytotoxicity against human A549 cells by MTT assay. (Tetrazolium dyes change colour on reduction, which living cells bring about.)
Assay [2] has as its system HT-29. Briefly: Cytotoxicity against human HT29 cells by MTT assay.
For assay [3], the system named is KB. Briefly: Cytotoxicity against human KB cells by MTT assay.
Assay [4] has as its system P388. Nature of the assay: Cytotoxicity against mouse P388 cells by MTT assay.

For the compound `C=C(C)C(O)CC[C@@H](C)[C@H]1CC[C@H]2[C@@H]3C[C@@H](O)C4=CC(=O)CC[C@]4(C)[C@H]3CC[C@]12C` (stereo not given in full), the EC50 in assay [1] is 2.37 µg/mL (≈ 5.72 µM); in assay [2] it was 0.3 µg/mL (≈ 0.724 µM); in assay [3] it was 0.83 µg/mL (≈ 2 µM); in assay [4], 0.19 µg/mL (≈ 0.458 µM).

Regarding `C=C(C)C(=O)CC[C@@H](C)[C@H]1CC[C@H]2[C@@H]3CC(=O)C4=CC(=O)CC[C@]4(C)[C@H]3CC[C@]12C`, the EC50 worked out at 0.27 µg/mL (≈ 0.658 µM) in assay [1], 0.3 µg/mL (≈ 0.731 µM) in assay [2], 0.24 µg/mL (≈ 0.585 µM) in assay [3] and 0.11 µg/mL (≈ 0.268 µM) in assay [4].

Regarding `C=C(C)C(CC[C@@H](C)[C@H]1CC[C@H]2[C@@H]3C[C@@H](O)C4=CC(=O)CC[C@]4(C)[C@H]3CC[C@]12C)OO` (stereo not given in full), the EC50 turned out to be 0.58 µg/mL (≈ 1.35 µM) in assay [1], 0.47 µg/mL (≈ 1.09 µM) in assay [2], 0.79 µg/mL (≈ 1.83 µM) in assay [3] and 0.22 µg/mL (≈ 0.511 µM) in assay [4].

For `C[C@H](C/C=C/C(C)(C)OO)[C@H]1CC[C@H]2[C@@H]3C[C@@H](O)C4=CC(=O)CC[C@]4(C)[C@H]3CC[C@]12C`, the EC50 in assay [1] was determined as 1 µg/mL (≈ 2.32 µM); in assay [2], 0.63 µg/mL (≈ 1.46 µM); in assay [3], 0.4 µg/mL (≈ 0.929 µM); in assay [4], 0.28 µg/mL (≈ 0.65 µM).

Turning to `C[C@H](C/C=C/C(C)(C)O)[C@H]1CC[C@H]2[C@@H]3C[C@@H](O)C4=CC(=O)CC[C@]4(C)[C@H]3CC[C@]12C`, the EC50 is 1.54 µg/mL (≈ 3.71 µM) in assay [1], 0.55 µg/mL (≈ 1.33 µM) in assay [2], 0.45 µg/mL (≈ 1.09 µM) in assay [3] and 0.14 µg/mL (≈ 0.338 µM) in assay [4].
